Laboratory results published in PMC7728344, “Pharmacokinetic Characterization of (Poly)phenolic Metabolites in Human Plasma and Urine after Acute and Short-Term Daily Consumption of Mango Pulp” (Molecules, 2020).
Read-outs that look alike come from different tables or passages of the source.

How the values were obtained:
clinical = type: in vivo, human; set-up: AUC0–24h: concentration or dose not given beside the values
Description: SPE procedure was conducted to extract and concentrate the (poly)phenolic compounds and their metabolites from the plasma samples. Briefly, plasma samples were thawed on ice and 500 µL plasma was diluted with 1.5 mL of 0.1% formic acid in water with addition of internal standards (2-methylhippuric acid (2 ng/mL), phloridizin (1 ng/mL)) before being loaded on preconditioned SPE cartridges. The cartridges were washed with 0.1% formic acid in water (1 mL) after loading with plasma samples. The elution of the compounds was achieved by 0.1% formic acid in methanol (1 mL) and the eluent was dried under nitrogen gas at room temperature. […] Supernatant was collected in amber HPLC vials before analysis.
The absorption and elimination of 11 major mango metabolites over 24 h was determined after MP, MP + VC, and VC intake. The plasma concentration/area at each time point was determined by the mean of 13 subjects. The time vs. concentration curves and the time vs. area curves were created using GraphPad Prism (version 8.2.1). […] Tmax is the time (h) when Cmax was achieved. Wilcoxon signed-rank test was used for Tmax analysis due to non-normal distribution. Area under the plasma concentration time curve (AUC0−24h, nmol·h/L) was calculated by the linear trapezoidal method using Microsoft Excel 2013, version 15 [63]. […]

[1] = Concentration of (poly)phenolic metabolites in fasting urine at baseline, 24 h after single MP beverage and 15th day after 14-day MP intake (UHPLC-QQQ-MS); conditions: for Concentration in fasting urine, Mean ± std Error, 0 h (Fasting) / Concentration in fasting urine, Mean ± std Error, 15 Days (Fasting) / Concentration in fasting urine, Mean ± std Error, 24 h (Fasting): in vivo; for concentration at 15 day / concentration at 24 h / concentration at 0 h: human, urine, oral; for concentration at 24 h / concentration at 0 h: 500 g
Description: The acute trial was a randomized, 3 arm, within-subject crossover study design (Figure 5A). The trial initiated with 3 days of food record collection to assess background (pre-study) dietary intake followed by counseling to adhere to a diet devoid of mango or its parts and relatively low in polyphenol-rich beverages/foods, which was maintained throughout the duration of the trial. […] In general, subjects were encouraged to follow their “usual” diet with the exception of foods/beverages that may interfere with the outcomes of the study. Food intake diaries and, phone call and email reminders helped subjects maintain compliance throughout the study period. After an initial 7-day run-in period on the limited polyphenol diet, subjects were assigned to a randomization sequence providing 1 of 3 study test beverages (recipes provided in Appendix A, Table A3) on three separate days in a random order: MP (500 g), MP (500 g) + VC (100 mg) or VC (100 mg) beverages. On each study day subjects arrived fasted and well hydrated. After standard admission procedures were completed (e.g., review of compliance with dietary requirements for 3 days prior to study day, dinner meal intake, usual sleep patterns), a catheter was placed by a registered nurse in subjects’ non-dominant arm and a fasting/baseline blood sample was collected (0 h). Subjects were provided with a standard breakfast meal 2 h after the study beverages. The breakfast meal was comprised of a buttermilk biscuit with butter and jelly, and scrambled egg white with shredded white cheddar cheese. After the 6 h blood collection, subjects ate a low polyphenol lunch consisting of dry roasted peanuts and fresh peeled cucumber with ranch dressing (Appendix A, Table A3).
Spot urine samples were collected in urine collection cups, immediately placed on ice and then aliquoted into individual cryovials. All the samples were stored at −80 °C until analysis.
A 14-day feeding trial was conducted with the MP only to study the effect of repetitive intake of MP on (poly)phenolic metabolite profiles. Upon completion of the acute trial, subjects were instructed to continue on the low polyphenolic diet for 2 weeks while consuming MP beverages (provided by CNRC) daily in the morning (250 g MP + 50 g water) and evening (250 g MP + 50 g water). On day 14, subjects consumed both beverages (500 g of MP in total) in the morning and reported to the CNRC on the 15th day after an overnight fast to provide a fasting blood and urine sample (Figure 5B). Blood and urine samples were collected as described above and stored at −80 °C until analysis.
The supernatant was collected and filtered through 0.2 µm polypropylene syringe filter before HPLC analysis.
The ESI conditions were the same as those used in the UHPLC-Q-TOF analysis. The quantification of the compounds was conducted by multiple-reaction monitoring (MRM) transitions. Spectra were recorded in both positive- and negative-ion mode with capillary voltage of 4500 V and drying gas flow rate of 9 L/min at 200 °C. The sheath gas temperature and flow rate were 300 °C and 11 L/min, respectively. Standards were optimized for collision energies, fragmentor voltages and MRM transitions using Mass Hunter Optimizer. The MRM transition for metabolites were created based on the results from UHPLC-Q-TOF-MS. Standards for plasma analysis were prepared in blank plasma (charcoal-stripped human plasma obtained from Bioreclamation IVT) for matrix match and for urine analysis were prepared in SMP.
The flow rate was maintained at 0.4 mL/min and the injection volume was 5 μL. The mobile phase consisted of acidified water (0.1% formic acid) (A) and acidified acetonitrile (0.1% formic acid) (B). The gradient for the separation of compounds was as follows: 5 to 5% B from 0 to 1 min; 10% B at 3 min; 15% B at 7 min; 15% B at 9 min; 20% B at 10 min; 20% B at 11 min; 25% B at 12 min; 30% B at 13 min; 30% B at 14 min; 95% B at 15 min; and back to 5% B at 16 min.

[2] = human plasma, 0−24 h, after VC (vitamin C 100 mg) beverage, mean ± standard error, read-out: Cmax
[3] = human plasma, after VC beverage, mean ± standard error

Compound: O=c1c2cc(O)c(O)cc2oc2cc(O)c([C@@H]3O[C@H](CO)[C@@H](O)[C@H](O)[C@H]3O)c(O)c12 [Compound C11, mangiferin]
- time within which cleared from the bloodstream (clinical; after mango intake): 6 to 8 h
- content in plasma (as observed from areas) after MP and MP + VC vs. VC beverage alone (clinical; area vs. time profile 0−24 h): significantly higher
- plasma concentration relative to limit of quantitation (clinical; human plasma after test beverages intake): below the LOQ
- Tmax (clinical; human, plasma, oral, 500 g, after mango intake, read-out: time to reach maximum concentration/area in plasma): 1 to 2 h
- difference in plasma concentrations/areas after MP + VC beverage compared to MP beverage alone (clinical; increase observed, statistical outcome): not statistically significant

Compound: COc1cc(/C=C/C(=O)O)ccc1O [Ferulic acid]
- Concentration in fasting urine, Mean ± std Error, 0 h (Fasting) [1]: 0.5 ± 0.1 µM
- Concentration in fasting urine, Mean ± std Error, 15 Days (Fasting) [1]: 0.4 ± 0.1 µM
- Concentration in fasting urine, Mean ± std Error, 24 h (Fasting) [1]: 0.4 ± 0.1 µM

Compound: O=C(O)CNC(=O)c1ccccc1 [Hippuric acid]
- concentration at 15 day [1]: 2020 ± 242 µM
- concentration at 24 h [1]: 3710 ± 582 µM

Compound: COC(=O)CNC(=O)c1ccccc1 [Methyl hippurate]
- Concentration in fasting urine, Mean ± std Error, 0 h (Fasting) [1]: 2.8 ± 2.3 µM
- Concentration in fasting urine, Mean ± std Error, 15 Days (Fasting) [1]: 6.3 ± 1.7 µM
- Concentration in fasting urine, Mean ± std Error, 24 h (Fasting) [1]: 7.8 ± 2.1 µM

Compound: COc1cc(C(=O)O)cc(OC)c1O [Syringic acid]
- concentration at 15 day [1]: 1.7 ± 0.2 µM
- concentration at 0 h [1]: 3.6 ± 0.4 µM
- concentration at 24 h [1]: 5.9 ± 0.8 µM

Compound: COc1cc(C(=O)O)ccc1O [Vanillic acid]
- concentration at 15 day [1]: 4.1 ± 1 µM
- concentration at 0 h [1]: 4.9 ± 0.9 µM
- concentration at 24 h [1]: 4.4 ± 0.7 µM

Compound: O=C(O)/C=C/c1cccc(O)c1 [m-Coumaric acid]
- Concentration in fasting urine, Mean ± std Error, 0 h (Fasting) [1]: 0.8 ± 0.1 µM
- Concentration in fasting urine, Mean ± std Error, 15 Days (Fasting) [1]: 0.7 ± 0.1 µM
- Concentration in fasting urine, Mean ± std Error, 24 h (Fasting) [1]: 0.7 ± 0.1 µM

Compound: O=C(O)/C=C/c1ccccc1O [o-Coumaric acid]
- concentration at 15 day [1]: 0.5 ± 0.1 µM
- concentration at 0 h [1]: 0.9 ± 0.1 µM
- concentration at 24 h [1]: 0.9 µM

Compound: O=C(O)C=Cc1ccc(O)cc1 [p-Coumaric acid]
- concentration at 15 day [1]: 0.3 µM
- concentration at 0 h [1]: 0.5 ± 0.1 µM
- concentration at 24 h [1]: 0.4 ± 0.1 µM

Compound: methylgallic acid [Compound C3]
- Cmax (clinical; [2]): 0.0048 ± 0.0007 µM
- AUC0–24h (clinical; [3]): 0.0259 ± 0.0019 µM·h
- AUC0–24h (clinical; human, in vivo): 0.1611 ± 0.0136 µM·h
- Cmax (clinical; human, in vivo): 0.0545 ± 0.0049 µM
- Tmax (clinical; human, in vivo): 2.2 ± 0.3 h
- difference in plasma concentrations/areas after MP + VC beverage compared to MP beverage alone (clinical; in vivo): not statistically significant

Compound: methylgallic acid sulfate [Compound C4]
- Cmax (clinical; [2]): 0.0063 ± 0.0016 µM
- AUC0–24h (clinical; [3]): 0.0247 ± 0.003 µM·h
- AUC0–24h (clinical; human, in vivo): 1.6558 ± 0.274 µM·h
- Cmax (clinical; human, in vivo): 0.824 ± 0.131 µM
- Tmax (clinical; human, in vivo): 2.2 ± 0.2 h
- difference in plasma concentrations/areas after MP + VC beverage compared to MP beverage alone (clinical; in vivo): not statistically significant

Compound: methylpyrogallol glucuronide [Compound C9]
- Tmax (clinical; [3]): 8.0 ± 2.3 h

Compound: methylpyrogallol sulfate isomer 1 [Compound C6]
- Cmax (clinical; [2]): 0.0358 ± 0.0095 µM
- AUC0–24h (clinical; [3]): 0.1295 ± 0.036 µM·h

Compound: methylpyrogallol sulfate isomer 2 [Compound C7]
- Cmax (clinical; [2]): 0.0766 ± 0.0249 µM
- AUC0–24h (clinical; [3]): 0.2166 ± 0.0545 µM·h
